Patent US20260262643A1, “HERBICIDAL BENZOXAZINES” (FMC CORPORATION, priority 2022, published 2026)
Read-outs that look alike come from different tables or passages of the source.

Key:
ryegrass, Italian [1] = assay: Test A preemergence; assay type: in vivo, Lolium multiflorum; conditions: Lolium multiflorum, pre-emergence, 240 h, read-out: Plant response rating, Ryegrass, Italian; for pest or weed control at 125 g/ha: 125 g ai/ha; for pest or weed control at 500 g/ha: 500 g ai/ha
Summary of the method: (§1)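 Loam/sand soil; pre-em directed soil spray at planting, post-em spray at 1–2 leaf (2–10 cm). Compound in non-phytotoxic solvent + surfactant. Greenhouse 10 d; visual injury vs untreated, 0 = no effect, 100 = complete control.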

oat, wild [2] = assay: Test A preemergence; assay type: in vivo, Avena fatua; conditions: Avena fatua, pre-emergence, 240 h, read-out: Plant response rating, Oat, Wild; for pest or weed control at 125 g/ha: 125 g ai/ha; for pest or weed control at 500 g/ha: 500 g ai/ha
Summary of the method: as §1

horseweed = assay: Test A postemergence; assay type: in vivo, Erigeron canadensis; conditions: Erigeron canadensis, post-emergence, 240 h, postemergence, 10 days, 0 to 100 scale (0 no effect, 100 complete control); for pest or weed control at 125 g/ha: 125 g ai/ha, read-out: Horseweed plant response rating; for pest or weed control at 500 g/ha: 500 g ai/ha, visual injury, read-out: Plant response rating, Horseweed
Summary of the method: as §1

galium = assay: Test A postemergence; assay type: in vivo, Galium aparine; conditions: Galium, post-emergence, 240 h, postemergence, 10 days, 0 to 100 scale (0 no effect, 100 complete control); for pest or weed control at 125 g/ha: 125 g ai/ha, read-out: Galium plant response rating; for pest or weed control at 500 g/ha: 500 g ai/ha, visual injury, read-out: Plant response rating, Galium
Summary of the method: as §1

soybean = assay: Test A postemergence; assay type: in vivo, Glycine max; conditions: Glycine max, post-emergence, 240 h, postemergence, 10 days, 0 to 100 scale (0 no effect, 100 complete control); for plant injury at 125 g/ha: 125 g ai/ha, read-out: Soybean plant response rating; for plant injury at 500 g/ha: 500 g ai/ha, visual injury, read-out: Plant response rating, Soybean
Summary of the method: as §1

oat, wild [3] = assay: Test A postemergence; assay type: in vivo, Avena fatua; conditions: Avena fatua, post-emergence, 240 h, postemergence, 10 days, 0 to 100 scale (0 no effect, 100 complete control); for pest or weed control at 125 g/ha: 125 g ai/ha, read-out: Oat, Wild plant response rating; for pest or weed control at 500 g/ha: 500 g ai/ha, visual injury, read-out: Plant response rating, Oat, Wild
Summary of the method: as §1

pigweed, palmer [4] = assay: Test A preemergence; assay type: in vivo, Amaranthus palmeri; conditions: Amaranthus palmeri, pre-emergence, 240 h, read-out: Plant response rating, Pigweed, Palmer; for pest or weed control at 125 g/ha: 125 g ai/ha; for pest or weed control at 500 g/ha: 500 g ai/ha
Summary of the method: as §1

corn = assay: Test A postemergence; assay type: in vivo, Zea mays; conditions: Zea mays, post-emergence, 240 h, postemergence, 10 days, 0 to 100 scale (0 no effect, 100 complete control); for plant injury at 125 g/ha: 125 g ai/ha, read-out: Corn plant response rating; for Corn plant response rating (crop injury, 0 = no effect, 100 = complete kill) at 500 g/ha: 500 g ai/ha, visual injury
Summary of the method: as §1

pigweed, palmer [5] = assay: Test A postemergence; assay type: in vivo, Amaranthus palmeri; conditions: Amaranthus palmeri, post-emergence, 240 h, postemergence, 10 days, 0 to 100 scale (0 no effect, 100 complete control); for pest or weed control at 125 g/ha: 125 g ai/ha, read-out: Pigweed, Palmer plant response rating; for pest or weed control at 500 g/ha: 500 g ai/ha, visual injury, read-out: Plant response rating, Pigweed, Palmer
Summary of the method: as §1

foxtail, giant = assay: Test A preemergence; assay type: in vivo, Setaria faberi; conditions: Setaria faberi, pre-emergence, 240 h, read-out: Plant response rating, Foxtail, Giant; for pest or weed control at 125 g/ha: 125 g ai/ha; for pest or weed control at 500 g/ha: 500 g ai/ha
Summary of the method: as §1

goosegrass = assay: Test A preemergence; assay type: in vivo, Eleusine indica; conditions: Eleusine indica, pre-emergence, 240 h, read-out: Plant response rating, Goosegrass; for pest or weed control at 125 g/ha: 125 g ai/ha; for pest or weed control at 500 g/ha: 500 g ai/ha
Summary of the method: as §1

sedge, umbrella = assay: Test B flooded paddy test; assay type: in vivo, Cyperus difformis; conditions: Cyperus difformis, 312 h; 250 g ai/ha, Flood, 13 days, 0 to 100 scale (0 no effect, 100 complete control); read-out: Plant response rating, Sedge, Umbrella
Summary of the method: (§2)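 Plants at the 2-leaf stage were flooded to 3 cm above the soil, and test compounds were applied directly into the paddy water, with that depth held throughout. After 13 days in a greenhouse, injury was rated visually against untreated controls on a 0–100 scale (100 = complete control).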

barnyardgrass = assay: Test B flooded paddy test; assay type: in vivo, Echinochloa crus-galli; conditions: Echinochloa crus-galli, 312 h, 250 g ai/ha, Flood, 13 days, 0 to 100 scale (0 no effect, 100 complete control); read-out: Plant response rating, Barnyardgrass
Summary of the method: as §2

ryegrass, Italian [6] = assay: Test A postemergence; assay type: in vivo, Lolium multiflorum; conditions: Lolium multiflorum, post-emergence, 240 h, postemergence, 10 days, 0 to 100 scale (0 no effect, 100 complete control); for pest or weed control at 125 g/ha: 125 g ai/ha, read-out: Ryegrass, Italian plant response rating; for pest or weed control at 500 g/ha: 500 g ai/ha, visual injury, read-out: Plant response rating, Ryegrass, Italian
Summary of the method: as §1

[7] = visual injury after 10 days, 0 to 100 scale, 0 is no effect, 100 is complete control
[8] = 0 to 100 scale (0 no effect, 100 complete control), 10 days

SMILES | pest or weed control at 125 g/ha (ryegrass, Italian [1]; [7]) [%] | pest or weed control at 125 g/ha (oat, wild [2]; [7]) [%] | pest or weed control at 125 g/ha (horseweed) [%] | pest or weed control at 500 g/ha (horseweed) [%] | pest or weed control at 125 g/ha (galium) [%] | pest or weed control at 500 g/ha (galium) [%] | plant injury at 125 g/ha (soybean) [%] | plant injury at 500 g/ha (soybean) [%] | pest or weed control at 125 g/ha (oat, wild [3]) [%] | pest or weed control at 500 g/ha (oat, wild [3]) [%] | pest or weed control at 125 g/ha (pigweed, palmer [4]; [7]) [%] | plant injury at 125 g/ha (corn) [%] | Corn plant response rating (crop injury, 0 = no effect, 100 = complete kill) at 500 g/ha (corn) [%] | pest or weed control at 125 g/ha (pigweed, palmer [5]) [%] | pest or weed control at 500 g/ha (pigweed, palmer [5]) [%] | pest or weed control at 125 g/ha (foxtail, giant; [7]) [%] | pest or weed control at 125 g/ha (goosegrass; [7]) [%] | pest or weed control at 250 g/ha (sedge, umbrella) [%] | pest or weed control at 250 g/ha (barnyardgrass) [%] | pest or weed control at 125 g/ha (ryegrass, Italian [6]) [%] | further results
Cc1cccc2c1O[C@@H](C)CN2C(=O)c1cccc(-n2cn[nH]c2=O)c1 [Compound 122, 4-[3-[[(2S)-2,3-Dihydro-2,8-dimethyl-4H-1,4-benzoxazin-4-yl]carbonyl]phenyl]-2,4-dihydro-3H-1,2,4-triazol-3-one] | 20 | 0 | 0 | 0 | 50 | 50 | 50 | 90 | 0 | 20 | 0 | 10 | 60 | 20 | 20 | 20 | 0 | 0 | 0 | 0 | pest or weed control at 500 g/ha (ryegrass, Italian [1]; [7]): 70%; pest or weed control at 500 g/ha (oat, wild [2]; [7]): 20%; pest or weed control at 500 g/ha (pigweed, palmer [4]; [7]): 30%; pest or weed control at 500 g/ha (foxtail, giant; [7]): 90%; pest or weed control at 500 g/ha (goosegrass; [7]): 90%; pest or weed control at 500 g/ha (ryegrass, Italian [6]): 30%
Cc1ccc(-n2cnc(C3CCC3)n2)cc1C(=O)N1C[C@H](C)Oc2c(Cl)cccc21 [Compound 96, [(2S)-8-Chloro-2,3-dihydro-2-methyl-4H-1,4-benzoxazin-4-yl][5-(3-cyclobutyl-1H-1,2,4-triazol-1-yl)-2-methylphenyl]methanone] | 100 | 50 | 40 | 80 | 100 | 100 | 100 | 100 | 30 | 80 | 100 | 10 | 60 | 90 | 90 | 100 | 100 | 98 | 60 | 50 | pest or weed control at 500 g/ha (ryegrass, Italian [1]; [8]): 100%; pest or weed control at 500 g/ha (oat, wild [2]; [8]): 80%; pest or weed control at 500 g/ha (pigweed, palmer [4]; [8]): 100%; pest or weed control at 500 g/ha (foxtail, giant; [8]): 100%; pest or weed control at 500 g/ha (goosegrass; [8]): 100%; pest or weed control at 500 g/ha (ryegrass, Italian [6]): 100%
